In patent US20050244490A1, “Dosing methods for beta-D-2',3'-dideoxy-2',3'-didehydro-5-fluorocytidine antiviral therapy” (priority 2003, published 2005):
Like-named read-outs stand apart in the source and are kept apart here. Values belong to the compound of their own block, whether it stands above or below them.

Legend:
[1] = human, in vivo
[2] = system: AZT/3TC-resistant HIV-1 recombinant viruses; experiment: microbe, parasite or virus in culture; type: cell-based; details: Human immunodeficiency virus 1, read-out: Average IC90 for AZT/3TC-R virus
Experimental: A panel of 22 viruses was constructed in the HXB2 background using the Protease and RT sequences from clinical isolates to determine Virco Profiling against recombinant clinical isolates (see FIGS. 7a and 7b). Viruses contained 2 to 17 mutations in RT frequently associated with nucleoside resistance, including: M184V, M41L, D67N, T215Y. IC50 values were determined using a high through-put reporter virus assay.

[3] = system: HepG2 cells; experiment: Mitochondrial toxicity testing (mitDNA, rRNA, lactic acid); type: cell-based; details: 14 days; for % Change in Lactic Acid: normalized for cytotoxicity
Experimental: HepG2 cells were incubated for 14 days with the active agent. and mitDNA and rRNA levels were determined by quantitative real-time PCR. The results are tabulated in […]

[4] = clinical; details: in vivo
[5] = target: DNA Pol β (Homo sapiens, UniProt P06746); experiment: Inhibition of pure DNA polymerase β by nucleoside triphosphates; type: biochemical; details: tritiated dCTP incorporation
Experimental: (§1) Triphosphates of nucleosides were tested against pure polymerases using tritiated dCTP incorporation.

[6] = target: T1, wild type HIV-RT (Human immunodeficiency virus type 1 group M subtype B, UniProt P04585); experiment: Ki / Km for wild type HIV-RT; type: biochemical, HIV-1
T1 construct: The Ki value for β-D-D4FC-TP for wild type HIV-RT

[7] = target: T2, HIV RT (Human immunodeficiency virus type 1 group M subtype B, UniProt P04585); experiment: Inhibition of purified HIV-1 reverse transcriptase by nucleoside triphosphates (tritiated dCTP incorporation); type: biochemical; details: pure polymerase, tritiated dCTP incorporation; read-out: IC50
T2 construct: purified HIV-1 reverse transcriptase (RT)
Experimental: An assay was performed to determine the ability of β-D-D4FC-triphosphate to terminate polymerization catalyzed by purified HIV-1 reverse transcriptase (RT). […] The target concentration is that concentration where most mutant variants tested are suppressed by 90% or more. The concentration of 5 μM is the target plasma concentration as most, mutant variants tested were suppressed ≧90% in vitro.
as §1

[8] = target: T3, DNA Pol γ (Homo sapiens, UniProt P54098); experiment: Inhibition of pure DNA polymerase γ by nucleoside triphosphates; type: biochemical; details: tritiated dCTP incorporation
T3 sequence (P54098 1-1239): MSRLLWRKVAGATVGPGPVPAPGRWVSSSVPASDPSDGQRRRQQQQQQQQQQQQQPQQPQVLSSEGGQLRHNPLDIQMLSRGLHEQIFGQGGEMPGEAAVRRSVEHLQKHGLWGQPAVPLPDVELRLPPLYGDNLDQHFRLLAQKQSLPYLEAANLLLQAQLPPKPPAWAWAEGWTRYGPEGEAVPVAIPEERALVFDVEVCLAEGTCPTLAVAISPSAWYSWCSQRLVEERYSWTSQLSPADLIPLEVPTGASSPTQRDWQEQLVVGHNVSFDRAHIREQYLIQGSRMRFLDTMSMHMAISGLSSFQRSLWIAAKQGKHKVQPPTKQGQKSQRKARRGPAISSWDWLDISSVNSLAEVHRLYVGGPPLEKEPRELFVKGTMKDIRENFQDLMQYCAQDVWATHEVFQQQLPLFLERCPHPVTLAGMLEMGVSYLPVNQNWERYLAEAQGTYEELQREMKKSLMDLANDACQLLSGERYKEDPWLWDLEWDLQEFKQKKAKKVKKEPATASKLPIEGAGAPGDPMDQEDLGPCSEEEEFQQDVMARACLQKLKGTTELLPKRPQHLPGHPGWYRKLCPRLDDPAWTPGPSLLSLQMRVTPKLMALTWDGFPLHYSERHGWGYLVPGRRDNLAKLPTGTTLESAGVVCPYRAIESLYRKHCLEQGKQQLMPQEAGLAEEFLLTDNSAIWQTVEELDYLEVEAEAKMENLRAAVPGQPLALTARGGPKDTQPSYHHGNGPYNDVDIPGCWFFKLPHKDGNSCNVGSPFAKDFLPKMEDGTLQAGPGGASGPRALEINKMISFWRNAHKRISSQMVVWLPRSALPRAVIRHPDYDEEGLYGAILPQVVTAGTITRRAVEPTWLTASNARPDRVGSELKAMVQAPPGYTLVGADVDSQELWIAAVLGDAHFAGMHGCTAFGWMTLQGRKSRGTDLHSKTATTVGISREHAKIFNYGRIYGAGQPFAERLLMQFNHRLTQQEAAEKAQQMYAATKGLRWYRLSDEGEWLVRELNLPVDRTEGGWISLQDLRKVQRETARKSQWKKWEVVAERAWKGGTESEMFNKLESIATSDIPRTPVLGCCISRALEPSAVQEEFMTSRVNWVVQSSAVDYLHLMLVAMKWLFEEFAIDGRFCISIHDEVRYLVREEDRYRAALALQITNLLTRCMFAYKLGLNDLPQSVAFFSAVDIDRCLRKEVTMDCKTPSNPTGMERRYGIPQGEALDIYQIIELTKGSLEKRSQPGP
Experimental: as §1

[9] = target: M184V mutant RT (Human immunodeficiency virus type 1 group M subtype B, UniProt P04585, M771V); experiment: biochemical; type: biochemical, HIV-1
[10] = clinical; details: male, human, in vivo
Experimental: Total of 18 HIV-1 infected males, aged 18-55 years, enrolled, 6 per treatment cohort.
In Cohort 3, subjects received either 100 mg, or 200 mg, or placebo.
The data was analyzed using non-compartmental and two-compartmental models.
HIV RNA levels were also determined using quantitative real-time RT-PCR.
Plasma HIV-1 RNA levels were measured by quantitative reverse transcriptase-polymerase chain reaction (Q-RT-PCR) essentially as described by Stuyver, L. J. et al., “Antiviral activity and cellular toxicity of modified 2′,3′-dideoxy-2′,3′-didehydrocytidine analogues” Antimicrob Agents Chemother.

[11] = system: HIV viral load; details: cited from earlier work
[12] = pbmc
[13] = system: acutely HIV-1 infected human PBM cells; experiment: Median effect / combination index study with Racivir; type: cell-based; details: Human immunodeficiency virus 1, PBMC, 120 h

SMILES: Nc1ccn([C@@H]2CS[C@H](CO)O2)c(=O)n1 [3TC, β-L-2′,3′-dideoxy-3′-thiacytidine]
Intracellular [Nuc-PPP] in patients [1]: 6 to 10 µM
IC90 [2]: > 93 µM
% Change in mitDNA ([3]; 1 μM): 0%
% Change in rRNA ([3]; 1 μM): −0.3%
% Change in Lactic Acid ([3]; 1 μM): +23%
% Change in mitDNA ([3]; 10 μM): −9%
% Change in rRNA ([3]; 10 μM): −0%
% Change in Lactic Acid ([3]; 10 μM): +5%
Cmax [4]: 6.6 µM

SMILES: Nc1ccn([C@@H]2CS[C@H](COP(=O)(O)OP(=O)(O)OP(=O)(O)O)O2)c(=O)n1 [3TC-TP]
IC50 [5]: 10.3 µM
Ki ([6]; read-out: Ki WT): 0.95 µM
IC50 [7]: 0.57 µM
IC50 [8]: 43.1 µM
Ki ([9]; read-out: Ki M184V): 85 µM

AUC ([10]; 10 mg): 0.39 ± 0.26 µM·h
AUC(0-τ) ([10]; 10 mg): 136 ± 14 ng·h/mL
AUC(0-∞) ([10]; 10 mg): 149 ng·h/mL
CLr ([10]; 10 mg): 1.39 L/h
CLtot/F ([10]; 10 mg): 67 957 mL/h
T ½ ([10]; 10 mg): 6.4 ± 4.2 h
Tmax ([10]; 10 mg): 1.0 ± 0.3 h
t1/2 λz ([10]; 10 mg): 2.41 h
tmax ([10]; 10 mg): 1.08 h
AUC ([10]; 25 mg): 1.52 ± 0.87 µM·h
AUC(0-τ) ([10]; 25 mg): 234 ng·h/mL
AUC(0-∞) ([10]; 25 mg): 250 ng·h/mL
CLr ([10]; 25 mg): 1.27 L/h
CLtot/F ([10]; 25 mg): 115 262 mL/h
T ½ ([10]; 25 mg): 9.5 ± 5.2 h
Tmax ([10]; 25 mg): 1.8 ± 0.9 h
t1/2 λz ([10]; 25 mg): 4.60 h
tmax ([10]; 25 mg): 1.33 h
AUC ([10]; 100 mg): 1.93 ± 0.68 µM·h
AUC(0-τ) ([10]; 100 mg): 309 ng·h/mL
AUC(0-∞) ([10]; 100 mg): 340 ng·h/mL
CLr ([10]; 100 mg): 10.26 L/h
CLtot/F ([10]; 100 mg): 307 932 mL/h
T ½ ([10]; 100 mg): 18.6 ± 10.1 h
Tmax ([10]; 100 mg): 3.7 ± 0.8 h
t1/2 λz ([10]; 100 mg): 8.50 h
tmax ([10]; 100 mg): 3.67 h
AUC ([10]; 200 mg): 14.43 ± 13.12 µM·h
AUC(0-τ) ([10]; 200 mg): 1,665 ng · h/mL
AUC(0-∞) ([10]; 200 mg): 1,887 ng · h/mL
CLr ([10]; 200 mg): 4.60 L/h
CLtot/F ([10]; 200 mg): 169 692 mL/h
T ½ ([10]; 200 mg): 11.2 ± 7.1 h
Tmax ([10]; 200 mg): 3.3 ± 3.2 h
t1/2 λz ([10]; 200 mg): 10.48 h
tmax ([10]; 200 mg): 3.33 h
SMILES: Nc1nc(=O)[nH]cc1F [5FC, 5-fluorocytosine]

SMILES: Nc1nc(NC2CC2)c2ncn([C@H]3C=C[C@@H](CO)C3)c2n1 [ABC, (1S,4R)-4-[2-amino-6-cyclopropyl-amino)-9H-purin-9-yl]-2-cyclopentene-1-methanol succinate]
Viral Load Decline (log) ([11]; 600 mg BD, duration of dosing 7): −1.00 log

SMILES: Cc1cn([C@H]2C[C@H](N=[N+]=[N-])[C@@H](CO)O2)c(=O)[nH]c1=O [AZT, 3′-deoxy-3′-azido-thymidine]
Viral Load Decline (log) ([11]; 300 mg BD, duration of dosing 14): −0.6 log

SMILES: Cc1cn([C@H]2C=C[C@@H](CO)O2)c(=O)[nH]c1=O [D4T, 2′,3′-didehydro-2′,3′-dideoxythymidine]
Intracellular half life [12]: 3.5 h
EC50 [13]: 0.05 µM
EC90 [13]: 0.35 µM
Intracellular [Nuc-PPP] in patients [1]: 0.05 µM
Ki [6]: 0.05 to 0.3 µM
IC90 [2]: 6.8 µM
Cmax [4]: 2.7 µM
half-life [4]: 1.7 h
Ki [9]: 3 µM

SMILES: Nc1nc(N)c2ncn([C@H]3CO[C@@H](CO)O3)c2n1 [DAPD, β-D-dioxolanyl-2,6-diaminopurine]
Viral Load Decline (log) ([11]; 300 mg BD, duration of dosing 14, add-on study in experienced patients): −1.5 log

SMILES: Cc1cn([C@H]2C[C@H](F)[C@@H](CO)O2)c(=O)[nH]c1=O [FLT]
Viral Load Decline (log) ([11]; 7.5 mg QD, duration of dosing 28, add-on study in experienced patients): −1.88 log
